IC50, Ki and Ratio data for eleven molecules are collected here from ChEMBL document CHEMBL1129998, “Pharmacological options in the treatment of benign prostatic hyperplasia” (J Med Chem, 1997).

The term IC50 denotes the midpoint of a concentration-inhibition curve. What is called Ki is the equilibrium dissociation constant of an inhibitor or competing ligand from its target. High values mean lower affinity, low ones higher affinity.

The target in assay [1] is 3 beta-hydroxysteroid dehydrogenase/Delta 5-->4-isomerase type 1 (Homo sapiens, UniProt P14060). Put plainly: Binding affinity on 3 beta-hydroxysteroid dehydrogenase.
3 beta-hydroxysteroid dehydrogenase/Delta 5-->4-isomerase type 1, sequence (P14060 whole entry): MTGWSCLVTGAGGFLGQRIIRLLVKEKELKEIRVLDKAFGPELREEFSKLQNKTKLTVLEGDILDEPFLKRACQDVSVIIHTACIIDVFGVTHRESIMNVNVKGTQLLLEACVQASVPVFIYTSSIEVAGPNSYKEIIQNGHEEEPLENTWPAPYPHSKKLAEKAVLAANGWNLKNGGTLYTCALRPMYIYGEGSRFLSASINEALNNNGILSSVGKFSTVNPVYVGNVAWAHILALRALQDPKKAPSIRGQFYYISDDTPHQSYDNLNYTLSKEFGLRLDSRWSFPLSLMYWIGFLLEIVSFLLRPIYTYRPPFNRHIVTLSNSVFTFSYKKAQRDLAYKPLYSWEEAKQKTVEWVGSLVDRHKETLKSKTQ
In assay [2] the target is T1, 3-oxo-5-alpha-steroid 4-dehydrogenase 1 (Homo sapiens, UniProt P18405).
T1 sequence (P18405 whole entry): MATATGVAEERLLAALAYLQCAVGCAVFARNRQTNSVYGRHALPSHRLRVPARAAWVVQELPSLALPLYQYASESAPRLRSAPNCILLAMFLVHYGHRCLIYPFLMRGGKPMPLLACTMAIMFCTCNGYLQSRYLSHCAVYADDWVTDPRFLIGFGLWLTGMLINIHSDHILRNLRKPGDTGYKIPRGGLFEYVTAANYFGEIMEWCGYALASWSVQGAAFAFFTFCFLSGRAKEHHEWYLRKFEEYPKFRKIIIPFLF
Put plainly: Inhibitory concentration on human 5-alpha reductase 1 isozyme.

Assay [3] has as its target T2, Steroid 5-alpha-reductase (Rattus norvegicus, UniProt P24008+P31214).
T2 sequence (P24008 whole entry): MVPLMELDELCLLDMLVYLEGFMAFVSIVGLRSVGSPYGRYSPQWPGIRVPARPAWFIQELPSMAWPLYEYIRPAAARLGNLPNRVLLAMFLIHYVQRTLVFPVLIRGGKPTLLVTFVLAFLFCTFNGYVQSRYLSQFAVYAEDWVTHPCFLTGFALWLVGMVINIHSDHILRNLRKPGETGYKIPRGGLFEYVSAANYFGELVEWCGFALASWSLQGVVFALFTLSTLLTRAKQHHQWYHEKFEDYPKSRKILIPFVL
T2 sequence (P31214 whole entry): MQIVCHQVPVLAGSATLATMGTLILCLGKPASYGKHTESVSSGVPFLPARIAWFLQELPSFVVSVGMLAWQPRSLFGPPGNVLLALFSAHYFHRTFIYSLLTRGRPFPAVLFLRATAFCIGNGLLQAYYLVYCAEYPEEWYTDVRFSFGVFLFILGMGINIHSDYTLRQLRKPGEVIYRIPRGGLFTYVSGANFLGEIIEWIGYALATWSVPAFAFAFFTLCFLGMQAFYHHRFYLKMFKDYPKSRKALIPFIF
Put plainly: (§1) Binding affinity on rat 5-alpha reductase-1 isozyme. Type of assay: protein assay.

Assay [4] has as its target T3, 3-oxo-5-alpha-steroid 4-dehydrogenase 2 (Homo sapiens, UniProt P31213).
T3 sequence (P31213 whole entry): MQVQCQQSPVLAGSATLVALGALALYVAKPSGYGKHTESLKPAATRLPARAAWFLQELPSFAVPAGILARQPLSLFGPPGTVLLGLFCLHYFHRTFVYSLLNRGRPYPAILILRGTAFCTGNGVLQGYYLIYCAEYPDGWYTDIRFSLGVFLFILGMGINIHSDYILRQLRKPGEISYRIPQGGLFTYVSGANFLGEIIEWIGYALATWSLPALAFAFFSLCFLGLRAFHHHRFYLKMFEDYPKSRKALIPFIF
Put plainly: Binding affinity for human 5-alpha reductase 2 isozyme.

Assay [5] has as its target T1, 3-oxo-5-alpha-steroid 4-dehydrogenase 1. Put plainly: Binding affinity for human 5 alpha reductase 1 isozyme.
Assay [6] concerns the target T3, 3-oxo-5-alpha-steroid 4-dehydrogenase 2. Put plainly: Inhibitory concentration on human 5-alpha reductase 2 (transfected SW-13 cells).
Assay [7] deals with T4, Alpha-1B adrenergic receptor (Rattus norvegicus, UniProt P15823).
T4 sequence (P15823 whole entry): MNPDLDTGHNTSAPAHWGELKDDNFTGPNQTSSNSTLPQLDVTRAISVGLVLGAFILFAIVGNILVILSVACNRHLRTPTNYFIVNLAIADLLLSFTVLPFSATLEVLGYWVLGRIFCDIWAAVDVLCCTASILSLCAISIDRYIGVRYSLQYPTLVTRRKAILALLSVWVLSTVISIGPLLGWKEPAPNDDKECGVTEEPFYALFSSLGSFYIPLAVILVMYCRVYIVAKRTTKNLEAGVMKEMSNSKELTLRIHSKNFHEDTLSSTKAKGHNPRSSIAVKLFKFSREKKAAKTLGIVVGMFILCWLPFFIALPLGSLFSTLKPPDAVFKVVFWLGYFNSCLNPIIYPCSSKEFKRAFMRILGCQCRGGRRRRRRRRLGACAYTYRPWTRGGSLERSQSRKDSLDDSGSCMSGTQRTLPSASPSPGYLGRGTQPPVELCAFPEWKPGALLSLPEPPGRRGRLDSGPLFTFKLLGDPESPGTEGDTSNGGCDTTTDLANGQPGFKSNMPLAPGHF
Put plainly: Binding affinity was tested on CEC-pretreated rat liver Alpha-1B adrenergic receptor.

Assay [8] deals with Canis familiaris. Put plainly: In vivo dose (iv) for 50% inhibition of norepinephrine-mediated contraction of proximal urethra (ID50) with the dose (iv) for 25% reduction in systolic blood pressure (ED25) in anesthetized dogs. Type of assay: functional, Canis lupus familiaris, Artery.
Assay [9] concerns the target T5, Alpha-1A adrenergic receptor (Rattus norvegicus, UniProt P43140).
T5 sequence (P43140 whole entry): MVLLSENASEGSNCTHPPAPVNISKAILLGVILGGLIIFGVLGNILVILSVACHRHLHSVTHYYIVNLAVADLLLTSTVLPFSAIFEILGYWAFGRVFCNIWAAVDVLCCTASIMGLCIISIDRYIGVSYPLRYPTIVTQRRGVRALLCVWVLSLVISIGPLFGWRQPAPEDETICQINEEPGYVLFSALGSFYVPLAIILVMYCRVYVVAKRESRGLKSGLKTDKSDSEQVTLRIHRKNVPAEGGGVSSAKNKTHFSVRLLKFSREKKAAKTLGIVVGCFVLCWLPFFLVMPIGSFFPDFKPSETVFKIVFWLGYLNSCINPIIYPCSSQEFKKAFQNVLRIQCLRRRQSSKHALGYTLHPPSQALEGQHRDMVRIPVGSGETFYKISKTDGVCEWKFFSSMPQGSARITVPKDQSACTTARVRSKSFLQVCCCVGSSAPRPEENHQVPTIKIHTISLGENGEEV
Put plainly: Binding affinity was tested on CEC-pretreated rat hippocampus Alpha-1A adrenergic receptor. The class given is tissue-based.

Assay [10] has as its target T2, Steroid 5-alpha-reductase. Put plainly: Binding affinity on rat 5-alpha reductase isozyme. The class given is protein assay.
The nature of assay [11]: Binding affinity on human prostatic 5-alpha reductase isozyme.
The target in assay [12] is T6, 3-oxo-5-alpha-steroid 4-dehydrogenase 2 (Rattus norvegicus, UniProt P31214).
T6 sequence (P31214 whole entry): T2 sequence (P31214 whole entry)
Put plainly: Binding affinity on rat 5-alpha reductase-2 isozyme.

Assay [13] addresses T7, 3-oxo-5-alpha-steroid 4-dehydrogenase 1 (Rattus norvegicus, UniProt P24008).
T7 sequence (P24008 whole entry): T2 sequence (P24008 whole entry)
Described as §1.

A value given as a limit tells only on which side of the number the result lay.

On to `CC(C)(C)CCNC(=O)[C@H]1CCC2C3CNC4=CC(=O)CC[C@]4(C)C3CC[C@@]21C` (some centres not stated), for which the IC50 in [1] was found to be 8.3 nM. Same read-out and setting: with `CC(C)(C)CC(C)(C)NC(=O)[C@H]1CCC2C3CNC4=CC(=O)CC[C@]4(C)C3CC[C@@]21C` (some centres not stated) the figure was 150 nM. In assay [2], `O=C(O)c1cc2cc(OCc3ccccc3)ccc2[nH]1` showed a Ki above 2500 nM.

Consider `C[C@]12CCC(C(=O)O)=CC1=CCc1cc(Cl)ccc12`, for which the Ki in assay [3] is recorded as 1200 nM. For `CC1=C2NCC3C(CC[C@@]4(C)C3CC[C@@H]4C(=O)Nc3cc(C(F)(F)F)ccc3C(F)(F)F)[C@@]2(C)CCC1=O` (some centres not stated), the IC50 in [4] was below 0.1 nM. The Ki in assay [5] was determined as 0.2 nM. Molecule `CC(C)(C)NC(=O)[C@H]1CCC2C3CCC4=C(C#N)C(=O)CC[C@]4(C)C3CC[C@@]21C` (some centres not stated) gave an IC50 in assay [6] of 2.9 nM.

For `COc1ccccc1N1CCN(CCCC(=O)c2cccc3c(=O)c(C)c(-c4ccccc4)oc23)CC1`, the IC50 was determined as 24 nM in assay [7] and 1.5 nM in assay [9]. In addition, the Ratio in assay [8] came out at 39.

`C[C@]12CCC(=O)C(Cl)=C1NCC1C2CC[C@@]2(C)C1CC[C@@H]2C(=O)Nc1cc(C(F)(F)F)ccc1C(F)(F)F` (some centres not stated) had an IC50 in assay [4] below 0.1 nM. For the same molecule, the Ki in assay [5] came out at 0.2 nM. Take `CC(C)N(C(=O)c1ccc(CCC2CCC(=O)N(C)C2)cc1)C(C)C` (configuration not stated): the Ki in assay [10] and in assay [11] was above 20000 nM in each case. For `CN1C(=O)CC[C@@H]2c3ccc(Cl)cc3CC[C@H]21` [BEXLOSTERIDE], the Ki in assay [12] is 10000 nM; in [13] it was 8 nM. In assay [5], `CC(C)(C)NC(=O)[C@H]1CC[C@H]2[C@@H]3CC[C@H]4NC(=O)C=C[C@]4(C)[C@H]3CC[C@]12C` [FINASTERIDE] had a Ki of 150 nM.
